The record followed here is patent US20190223483A1, “SENSORY MODIFIER COMPOUNDS” (CARGILL, INCORPORATED, priority 2017, published 2019).

Holding throughout (assay type): in vivo
Assay [1] in a line: Roundtable assessment of mouthfeel (scale 0 to 2). As for the experimental part: For other sweetness attributes, the solutions were tested by a panel of at least four individuals that are highly-trained in tasting steviol glycoside solutions. The highly-trained panelists used a roundtable methodology to assess each sweetness attribute. To test each solution, the highly-trained panelists dispensed approximately 2 mL of each solution into their own mouths by transfer pipet, dispersed the solution by moving their tongues, and recorded a value for the particular sweetness attribute being tested. Between tasting solutions, the panelists were able to cleanse their palates with water. For each sweetness attribute, the panelist agreed on a descriptive scale with relative intensities assigned for each sweetness attribute and then recorded the values for each sweetness attribute against this. For example, this roundtable assessment of sweetness linger assigned a scale of 0 to 6 with a score of 0 indicating no sweetness linger and a score of 6 indicating extreme sweetness linger. Roundtable assessment of sweetness linger assigned a scale of 0 to 6 with a score of 0 indicating no sweetness linger and a score of 6 indicating extreme sweetness linger (0=none, 1=trace, 2=slight, 3=moderate, 4=definite, 5=strong, 6=extreme). Roundtable assessment of rounded assigned a scale of 0 to 3 with a score of 0 indicating spikey and a score of 3 indicating desirable rounded (0=none, 1=mostly spikey, some rounded, 2=mostly rounded, some spikey, 3=rounded). Roundtable assessment of mouthfeel assigned a scale of 0 to 2 with a score of 0 indicating water and a score of 2 indicating syrupy (0=water, 1=sucrosey, 2=syrupy). Roundtable assessment of bitterness assigned a scale of 0 to 6 with a score of 0 indicating no bitterness and a score of 6 indicating extreme sweetness linger (0=none, 1=trace, 2=slight, 3=moderate, 4=definite, 5=strong, 6=extreme). Roundtable assessment of off tastes assigned a scale of 0 to 6 with a score of 0 indicating no bitterness and a score of 6 indicating extreme off tastes (0=none, 1=trace, 2=slight, 3=moderate, 4=definite, 5=strong, 6=extreme).
A series of assays were carried out to characterize a sweetness quality of mouthfeel (0=water, 1=sucrosey, 2=syrupy) of steviol glycoside compositions with sensory modifier compound using the roundtable methodology described in Example 1. […] Solutions of steviol glycosides and sensory modifier compound were prepared at increasing ratios of sensory modifier to steviol glycoside by weight. The steviol glycosides were RebA (4 glycoside groups), RebD (5 glycoside groups), RebM (6 glycoside groups), and OPS1-5(7 glycoside groups) and the sensory modifier compound was monocaffeoylquinic and dicaffeoylquinic acids prepared from yerba mate. The concentration of steviol glycosides was 700 ppm in each solution. […]

A short description of assay [2]: Roundtable assessment of off taste (scale 0 to 6). Further details: key: 0 = none; 1 = trace/faint; 2 = slight; 3 = moderate; 4 = definite; 5 = strong; 6 = extreme.
The nature of assay [3]: Overall sweetness quality preference. Further details: key: ! = preferred; !! = very preferred; !!! = most preferred. As for the experimental part:
A series of assays were carried out to determine overall sweetness quality preference for steviol glycoside with sensory modifier compound. Solutions of steviol glycosides and sensory modifier compound were prepared at varying concentrations of steviol glycoside and sensory modifier compound. The steviol glycoside was RebM and the sensory modifier compound was monocaffeoylquinic and dicaffeoylquinic acids prepared from yerba mate. The concentration of steviol glycosides was between 0 ppm and 1600 ppm. The concentration of sensory modifier compound was between 0 ppm and 1600 ppm. The solutions were tested for overall sweetness quality preference (!=preferred, !!=very preferred, and !!!=most preferred).

Assay [4] is described as follows: Roundtable assessment of bitterness (scale 0 to 6). Further details: key: 0 = none; 1 = trace/faint; 2 = slight; 3 = moderate; 4 = definite; 5 = strong; 6 = extreme.
Setting [5] is: RebM 700 ppm + cichoric acid (tartaric backbone) 514 ppm.

On to `C=C1C[C@@]23CC[C@H]4[C@@](C)(CCC[C@@]4(C)C(=O)O[C@@H]4O[C@H](CO)[C@@H](O)[C@H](O)[C@H]4O)[C@@H]2CC[C@]1(O[C@@H]1O[C@H](CO)[C@@H](O)[C@H](O[C@@H]2O[C@H](CO)[C@@H](O)[C@H](O)[C@H]2O)[C@H]1O[C@@H]1O[C@H](CO)[C@@H](O)[C@H](O)[C@H]1O)C3` [RebA, Rebaudioside A], for which the Mouthfeel entry in assay [1] (steviol glycoside 700 ppm + yerba mate mono/dicaffeoylquinic acids 630 ppm), in assay [1] (steviol glycoside 700 ppm + yerba mate mono/dicaffeoylquinic acids 946 ppm) and in assay [1] (steviol glycoside 700 ppm + yerba mate mono/dicaffeoylquinic acids […]) was “Not noted by panel” throughout.
For the compound `C=C1C[C@@]23CC[C@H]4[C@@](C)(CCC[C@@]4(C)C(=O)O[C@@H]4O[C@H](CO)[C@@H](O)[C@H](O)[C@H]4O[C@@H]4O[C@H](CO)[C@@H](O)[C@H](O)[C@H]4O)[C@@H]2CC[C@]1(O[C@@H]1O[C@H](CO)[C@@H](O)[C@H](O[C@@H]2O[C@H](CO)[C@@H](O)[C@H](O)[C@H]2O)[C@H]1O[C@@H]1O[C@H](CO)[C@@H](O)[C@H](O)[C@H]1O)C3` [RebD, Rebaudioside D], the Mouthfeel result in assay [1] (steviol glycoside 700 ppm + yerba mate mono/dicaffeoylquinic acids 810 ppm) is reported as “Not noted by panel”.
For `C=C1C[C@@]23CC[C@H]4[C@@](C)(CCC[C@@]4(C)C(=O)O[C@@H]4O[C@H](CO)[C@@H](O)[C@H](O[C@@H]5O[C@H](CO)[C@@H](O)[C@H](O)[C@H]5O)[C@H]4O[C@@H]4O[C@H](CO)[C@@H](O)[C@H](O)[C@H]4O)[C@@H]2CC[C@]1(O[C@@H]1O[C@H](CO)[C@@H](O)[C@H](O[C@@H]2O[C@H](CO)[C@@H](O)[C@H](O)[C@H]2O)[C@H]1O[C@@H]1O[C@H](CO)[C@@H](O)[C@H](O)[C@H]1O)C3` [RebM, Rebaudioside M], the results for the Off taste in assay [2] (setting [5]), in assay [2] (RebM 700 ppm + cichoric acid (tartaric backbone) 772 ppm) and in assay [2] (RebM 700 ppm + rosmarinic acid 391 ppm) were 0, 0 and 2, respectively. For the same compound, the “Sweetness Quality preferred” value in assay [3] (quinic acid backbone modifier 400 ppm, RebM 600 ppm) is given as “!!”; in assay [3] (quinic acid backbone modifier 400 ppm, RebM 700 ppm), “!!”; in assay [3] (quinic acid backbone modifier 500 ppm, RebM 600 ppm), “!”; in assay [3] (quinic acid backbone modifier 500 ppm, RebM 700 ppm) it was “!!!”; in assay [3] (quinic acid backbone modifier 600 ppm, RebM 400 ppm) it was “!”; in assay [3] (quinic acid backbone modifier 600 ppm, RebM 700 ppm) it was “!”. Further, the “Sweetness Quality preferred” value is recorded as “!!” in assay [3] (quinic acid backbone modifier 700 ppm, RebM 800 ppm); “!” in assay [3] (quinic acid backbone modifier 800 ppm, RebM 400 ppm); “!” in assay [3] (quinic acid backbone modifier 800 ppm, RebM 600 ppm); “!” in assay [3] (quinic acid backbone modifier 800 ppm, RebM 700 ppm). Further, the Bitterness in assay [4] (setting [5]) and in assay [4] (RebM 700 ppm + rosmarinic acid 586 ppm) was 0 each time.
